# Measurements taken from US8895474B2, “Herbicidally active cyclopentanediones and derivatives thereof, and their use in controlling weeds” (Syngenta Limited, priority 2009, dated 2014).
# What was measured:
# Format in all cases: in vivo
# Details in all cases: 312 h, rate 250 g/ha, evaluated after 13 days, 100=total damage to plant, 0=no damage to plant
# [1] = tested on: Alopecurus myosuroides (ALOMY); assay: Pre-emergence herbicidal activity, glasshouse pot test
# Procedure: (§1) Seeds of a variety of test species were sown in standard soil in pots. After cultivation for one day (pre-emergence) or after 8 days cultivation (post-emergence) under controlled conditions in a glasshouse (at 24/16° C., day/night; 14 hours light; 65% humidity), the plants were sprayed with an aqueous spray solution derived from the formulation of the technical active ingredient in acetone/water (50:50) solution containing 0.5% Tween 20 (polyoxyethelyene sorbitan monolaurate, CAS RN 9005-64-5). The test plants were then grown in a glasshouse under controlled conditions in a glasshouse (at 24/16° C., day/night; 14 hours light; 65% humidity) and watered twice daily. After 13 days for pre and post-emergence, the test was evaluated (100=total damage to plant; 0=no damage to plant). Test Plants: Lolium perenne (LOLPE), Alopecurus myosuroides (ALOMY), Echinochloa crus-galli (ECHCG), and Avena fatua (AVEFA). Pre-Emergence Activity
# Avena fatua (AVEFA) [2] = assay: as above
# Procedure: as §1
# [3] = tested on: Echinochloa crus-galli (ECHCG); assay: as above
# Procedure: as §1
# Lolium perenne (LOLPE) [4] = assay: as above
# Procedure: as §1
# [5] = tested on: Alopecurus myosuroides (ALOMY); assay: Post-emergence herbicidal activity, glasshouse pot test
# Procedure: as §1, with “Post-Emergence” for “Pre-Emergence”
# Avena fatua (AVEFA) [6] = assay: as above
# Procedure: as §1, with “Post-Emergence” for “Pre-Emergence”
# [7] = tested on: Echinochloa crus-galli (ECHCG); assay: as above
# Procedure: as §1, with “Post-Emergence” for “Pre-Emergence”
# Lolium perenne (LOLPE) [8] = assay: as above
# Procedure: as §1, with “Post-Emergence” for “Pre-Emergence”
compound,measurement,setting,value
CCc1ccc(Oc2ccc(C(F)(F)F)cn2)cc1C1=C(O)CCC1=O [Compound A-60],pest or weed control at 250 g/ha,[1],80%
same,pest or weed control at 250 g/ha,Avena fatua (AVEFA) [2],70%
same,pest or weed control at 250 g/ha,[3],100%
same,pest or weed control at 250 g/ha,Lolium perenne (LOLPE) [4],80%
same,pest or weed control at 250 g/ha,[5],90%
same,pest or weed control at 250 g/ha,Avena fatua (AVEFA) [6],80%
same,pest or weed control at 250 g/ha,[7],100%
same,pest or weed control at 250 g/ha,Lolium perenne (LOLPE) [8],80%
CCc1ccc(Oc2ncc(Cl)cc2C(F)(F)F)cc1C1=C(O)CCC1=O [Compound A-78],pest or weed control at 250 g/ha,[1],70%
same,pest or weed control at 250 g/ha,Avena fatua (AVEFA) [2],70%
same,pest or weed control at 250 g/ha,[3],100%
same,pest or weed control at 250 g/ha,Lolium perenne (LOLPE) [4],100%
same,pest or weed control at 250 g/ha,[5],100%
same,pest or weed control at 250 g/ha,Avena fatua (AVEFA) [6],90%
same,pest or weed control at 250 g/ha,[7],100%
same,pest or weed control at 250 g/ha,Lolium perenne (LOLPE) [8],90%
CCc1ccc(Oc2ccc(Cl)cc2Cl)cc1C1=C(O)C2C(C1=O)[C@H]1CC[C@@H]2CC1 (stereo partly shown) [Compound A-29],pest or weed control at 250 g/ha,[1],0%
same,pest or weed control at 250 g/ha,Avena fatua (AVEFA) [2],0%
same,pest or weed control at 250 g/ha,[3],50%
same,pest or weed control at 250 g/ha,Lolium perenne (LOLPE) [4],0%
same,pest or weed control at 250 g/ha,[5],60%
same,pest or weed control at 250 g/ha,Avena fatua (AVEFA) [6],0%
same,pest or weed control at 250 g/ha,[7],100%
same,pest or weed control at 250 g/ha,Lolium perenne (LOLPE) [8],0%
CCc1ccc(Oc2ccccc2F)cc1C1=C(O)[C@H]2[C@@H](C1=O)[C@@H]1CC[C@H]2O1 [Compound A-5],pest or weed control at 250 g/ha,[1],30%
same,pest or weed control at 250 g/ha,Avena fatua (AVEFA) [2],0%
same,pest or weed control at 250 g/ha,[3],80%
same,pest or weed control at 250 g/ha,Lolium perenne (LOLPE) [4],40%
same,pest or weed control at 250 g/ha,[5],30%
same,pest or weed control at 250 g/ha,Avena fatua (AVEFA) [6],10%
same,pest or weed control at 250 g/ha,[7],80%
same,pest or weed control at 250 g/ha,Lolium perenne (LOLPE) [8],30%
CCc1ccc(Oc2ccc(C(F)(F)F)cc2[N+](=O)[O-])cc1C1=C(O)CCC1=O [Compound A-76],pest or weed control at 250 g/ha,[1],20%
same,pest or weed control at 250 g/ha,Avena fatua (AVEFA) [2],0%
same,pest or weed control at 250 g/ha,[3],100%
same,pest or weed control at 250 g/ha,Lolium perenne (LOLPE) [4],50%
same,pest or weed control at 250 g/ha,[5],50%
same,pest or weed control at 250 g/ha,Avena fatua (AVEFA) [6],80%
same,pest or weed control at 250 g/ha,[7],80%
same,pest or weed control at 250 g/ha,Lolium perenne (LOLPE) [8],30%
CCc1ccc(Oc2ncc(Cl)cc2F)cc1C1=C(O)C2C(C1=O)[C@H]1CC[C@@H]2CC1 (stereo partly shown) [Compound A-14],pest or weed control at 250 g/ha,[1],60%
same,pest or weed control at 250 g/ha,Avena fatua (AVEFA) [2],60%
same,pest or weed control at 250 g/ha,[3],100%
same,pest or weed control at 250 g/ha,Lolium perenne (LOLPE) [4],90%
same,pest or weed control at 250 g/ha,[5],100%
same,pest or weed control at 250 g/ha,Avena fatua (AVEFA) [6],100%
same,pest or weed control at 250 g/ha,[7],100%
same,pest or weed control at 250 g/ha,Lolium perenne (LOLPE) [8],90%
CCc1ccc(Oc2cnc3cc(Cl)ccc3n2)cc1C1=C(O)CCC1=O [Compound A-18],pest or weed control at 250 g/ha,[1],50%
same,pest or weed control at 250 g/ha,Avena fatua (AVEFA) [2],50%
same,pest or weed control at 250 g/ha,[3],80%
same,pest or weed control at 250 g/ha,Lolium perenne (LOLPE) [4],70%
same,pest or weed control at 250 g/ha,[5],90%
same,pest or weed control at 250 g/ha,Avena fatua (AVEFA) [6],90%
same,pest or weed control at 250 g/ha,[7],100%
same,pest or weed control at 250 g/ha,Lolium perenne (LOLPE) [8],70%
CCc1ccc(Oc2nc3ccccc3s2)cc1C1=C(O)C2C(C1=O)[C@H]1CC[C@@H]2CC1 (stereo partly shown) [Compound A-16],pest or weed control at 250 g/ha,[1],40%
same,pest or weed control at 250 g/ha,Avena fatua (AVEFA) [2],30%
same,pest or weed control at 250 g/ha,[3],90%
same,pest or weed control at 250 g/ha,Lolium perenne (LOLPE) [4],70%
same,pest or weed control at 250 g/ha,[5],70%
same,pest or weed control at 250 g/ha,Avena fatua (AVEFA) [6],90%
same,pest or weed control at 250 g/ha,[7],100%
same,pest or weed control at 250 g/ha,Lolium perenne (LOLPE) [8],70%
CCc1ccc(Oc2ccc(Br)cc2)cc1C1=C(O)CCC1=O [Compound A-37],pest or weed control at 250 g/ha,[1],10%
same,pest or weed control at 250 g/ha,Avena fatua (AVEFA) [2],0%
same,pest or weed control at 250 g/ha,[3],20%
same,pest or weed control at 250 g/ha,Lolium perenne (LOLPE) [4],10%
same,pest or weed control at 250 g/ha,[5],20%
same,pest or weed control at 250 g/ha,Avena fatua (AVEFA) [6],20%
same,pest or weed control at 250 g/ha,[7],80%
same,pest or weed control at 250 g/ha,Lolium perenne (LOLPE) [8],30%
CCc1ccc(Oc2ccc(F)c(Cl)c2)cc1C1=C(O)[C@H]2[C@@H](C1=O)[C@@H]1CC[C@H]2O1 [Compound A-49],pest or weed control at 250 g/ha,[1],90%
same,pest or weed control at 250 g/ha,Avena fatua (AVEFA) [2],90%
same,pest or weed control at 250 g/ha,[3],100%
same,pest or weed control at 250 g/ha,Lolium perenne (LOLPE) [4],100%
same,pest or weed control at 250 g/ha,[5],90%
same,pest or weed control at 250 g/ha,Avena fatua (AVEFA) [6],90%
same,pest or weed control at 250 g/ha,[7],100%
same,pest or weed control at 250 g/ha,Lolium perenne (LOLPE) [8],100%
CCc1ccc(Oc2ccc(C(F)(F)F)cn2)cc1C1=C(O)C2C(C1=O)[C@H]1CC[C@@H]2CC1 (stereo partly shown) [Compound A-87],pest or weed control at 250 g/ha,[1],80%
same,pest or weed control at 250 g/ha,Avena fatua (AVEFA) [2],30%
same,pest or weed control at 250 g/ha,[3],100%
same,pest or weed control at 250 g/ha,Lolium perenne (LOLPE) [4],90%
same,pest or weed control at 250 g/ha,[5],90%
same,pest or weed control at 250 g/ha,Avena fatua (AVEFA) [6],100%
same,pest or weed control at 250 g/ha,[7],100%
same,pest or weed control at 250 g/ha,Lolium perenne (LOLPE) [8],90%
"O=C1CCC(O)=C1c1cc(Oc2ccc(Cl)cc2)ccc1C1CC1 [Compound A-54, 2-[5-(4-chlorophenoxy)-2-cyclopropylphenyl]cyclopentane-1,3-dione]",pest or weed control at 250 g/ha,[1],0%
same,pest or weed control at 250 g/ha,Avena fatua (AVEFA) [2],0%
same,pest or weed control at 250 g/ha,[3],0%
same,pest or weed control at 250 g/ha,Lolium perenne (LOLPE) [4],0%
same,pest or weed control at 250 g/ha,[5],0%
same,pest or weed control at 250 g/ha,Avena fatua (AVEFA) [6],10%
same,pest or weed control at 250 g/ha,[7],80%
same,pest or weed control at 250 g/ha,Lolium perenne (LOLPE) [8],0%
CCc1ccc(Oc2ccc(Br)cc2F)cc1C1=C(O)[C@H]2[C@@H](C1=O)[C@@H]1CC[C@H]2O1 [Compound A-2],pest or weed control at 250 g/ha,[1],60%
same,pest or weed control at 250 g/ha,Avena fatua (AVEFA) [2],30%
same,pest or weed control at 250 g/ha,[3],60%
same,pest or weed control at 250 g/ha,Lolium perenne (LOLPE) [4],60%
same,pest or weed control at 250 g/ha,[5],100%
same,pest or weed control at 250 g/ha,Avena fatua (AVEFA) [6],100%
same,pest or weed control at 250 g/ha,[7],100%
same,pest or weed control at 250 g/ha,Lolium perenne (LOLPE) [8],100%
CCc1ccc(Oc2ccc(Br)cc2F)cc1C1=C(O)C2C(C1=O)[C@H]1CC[C@@H]2CC1 (stereo partly shown) [Compound A-34],pest or weed control at 250 g/ha,[1],20%
same,pest or weed control at 250 g/ha,Avena fatua (AVEFA) [2],30%
same,pest or weed control at 250 g/ha,[3],70%
same,pest or weed control at 250 g/ha,Lolium perenne (LOLPE) [4],50%
same,pest or weed control at 250 g/ha,[5],80%
same,pest or weed control at 250 g/ha,Avena fatua (AVEFA) [6],90%
same,pest or weed control at 250 g/ha,[7],90%
same,pest or weed control at 250 g/ha,Lolium perenne (LOLPE) [8],40%
"CCc1ccc(Oc2ccc(Cl)c(Cl)c2)cc1C1=C(O)CCC1=O [Compound A-17, 2-[5-(3,4-dichlorophenoxy)-2-ethylphenyl]cyclopentane-1,3-dione]",pest or weed control at 250 g/ha,[1],10%
same,pest or weed control at 250 g/ha,Avena fatua (AVEFA) [2],20%
same,pest or weed control at 250 g/ha,[3],30%
same,pest or weed control at 250 g/ha,Lolium perenne (LOLPE) [4],10%
same,pest or weed control at 250 g/ha,[5],10%
same,pest or weed control at 250 g/ha,Avena fatua (AVEFA) [6],10%
same,pest or weed control at 250 g/ha,[7],70%
same,pest or weed control at 250 g/ha,Lolium perenne (LOLPE) [8],30%
CCc1ccc(Oc2ccc(Cl)c(F)c2)cc1C1=C(O)C2C(C1=O)[C@H]1CC[C@@H]2CC1 (stereo partly shown) [Compound A-33],pest or weed control at 250 g/ha,[1],20%
same,pest or weed control at 250 g/ha,Avena fatua (AVEFA) [2],0%
same,pest or weed control at 250 g/ha,[3],50%
same,pest or weed control at 250 g/ha,Lolium perenne (LOLPE) [4],50%
same,pest or weed control at 250 g/ha,[5],90%
same,pest or weed control at 250 g/ha,Avena fatua (AVEFA) [6],90%
same,pest or weed control at 250 g/ha,[7],100%
same,pest or weed control at 250 g/ha,Lolium perenne (LOLPE) [8],0%
"CCc1ccc(Oc2cnc3cc(Cl)ccc3n2)cc1C1=C(O)[C@H]2[C@H]3CC[C@H](C3)[C@H]2C1=O [Compound A-10, meso-(3aS,4S,7R,7aR)-2-[5-(6-chloroquinoxalin-2-yloxy)-2-ethylphenyl]hexahydro-4,7-methanoindene-1,3-dione]",pest or weed control at 250 g/ha,[1],40%
same,pest or weed control at 250 g/ha,Avena fatua (AVEFA) [2],20%
same,pest or weed control at 250 g/ha,[3],60%
same,pest or weed control at 250 g/ha,Lolium perenne (LOLPE) [4],30%
same,pest or weed control at 250 g/ha,[5],90%
same,pest or weed control at 250 g/ha,Avena fatua (AVEFA) [6],100%
same,pest or weed control at 250 g/ha,[7],90%
same,pest or weed control at 250 g/ha,Lolium perenne (LOLPE) [8],90%
